Test results: patent US20250017958A1, “COMBINATORIAL THERAPEUTIC APPROACH FOR FRIEDREICH'S ATAXIA” (University of Florida Research Foundation, Incorporated, priority 2021, published 2025)
“Also recorded” adds a separate entry of the source.

What was measured:
FRDAkd mice = test: Survival of FRDAkd mice after FXN knockdown (DOX); format: in vivo, mouse; settings: combination versus individual treatment
Experimental: FIG. 4. […] No mortality was observed FRDAkd mice (DOX) treated with quercetin, taurine, and EGCG. FRDAkd mice were treated with doxycycline (DOX for FXN knockdown) or with doxycycline plus 100 mg/kg/day taurine, 35 mg/kg/day quercetin, and 4.6 mg/kg/day EGCG, and 0.5 mg/kg/day of ferrous sulfate for 16 weeks. N=10 animals per group.

NRF2 [1] = settings: FRDA patients with moderate dysfunction (Lynch D R et al. 2021); cited from earlier work
[2] = previous studies (Lesjak M et al. 2019); cited from earlier work
NRF2 [3] = test: NRF2 expression in tissues of FRDAkd mice (Western blot); format: in vivo, mouse; settings: for expression of NRF2 (Western blot): 35 mg/kg/day quercetin, 625 mg/kg doxycycline
Experimental: (§1) FIG. 3A-B. Western blot analysis of FXN and NRF2 in FRDA cells and FRDAkd mice after quercetin treatment.
(§2) FIG. 3C-D. Western blot analysis of FXN and NRF2 in FRDA cells and FRDAkd mice after quercetin treatment. […] Tg Low Dox animals were treated with 625 mg/kg doxycycline (FXN knockdown) and Tg Low Dox+Quercetin animal was provided with 625 mg/kg doxycycline plus 35 mg/kg/day of quercetin. […] Overall, quercetin increased the expression of FXN and NRF2 in both in vitro and in vivo conditions.

FXN [4] = test: FXN expression in tissues of FRDAkd mice (Western blot); format: in vivo, mouse; settings: for expression of FXN (Western blot): 35 mg/kg/day quercetin, 625 mg/kg doxycycline
Experimental: as §1, §2

NRF2 [5] = test: NRF2 expression in FRDA patient fibroblasts (Western blot, qPCR); format: cell-based, human
Text: (§3) FIG. 2B. […] N=3. One-way ANOVA and Welch's t-test, ±SEM. *p≤0.05, **p≤0.01, ***p 0.001.
as §1

[6] = test system: iron metabolism-related genes; test: Expression of iron metabolism-related genes in cell lines (Real-time PCR); format: cell-based, human; settings: various cell lines, including FRDA patient fibroblast cell lines
Experimental: FIG. 2A. Graphs illustrating expression levels of frataxin (FXN) and various iron metabolism-related genes in control fibroblasts (age and sex matched) or fibroblasts from a patient with Friedreich's Ataxia (FRDA) treated with vehicle or 75 μM quercetin. Expression levels were determined using Real-time PCR and normalized to Hprtl. Experiments were conducted in triplicates and values expressed as mean±SEM. One-way ANOVA and 0.05**

FXN [7] = test: FXN expression in FRDA patient fibroblasts (Western blot, qPCR); format: cell-based, human
Experimental: FIG. 2A. […] Expression levels were determined using Real-time PCR and normalized to Hprtl. Experiments were conducted in triplicates and values expressed as mean±SEM. One-way ANOVA and 0.05**
as §3, §1, §2

FXN [8] = settings: phase 3 randomized controlled trial, FRDA; cited from earlier work
[9] = several tissues from quercetin-treated FRDAkd mice (in vivo), summary statement
[10] = FRDA fibroblast cell line, 24 hours quercetin, 75 μM and 100 μM
[11] = FRDA patient fibroblast cell lines (in vitro), summary statement
[12] = fibroblasts from patients with FRDA, quercetin dose series

Molecule: O=C(O[C@@H]1Cc2c(O)cc(O)cc2O[C@@H]1c1cc(O)c(O)c(O)c1)c1cc(O)c(O)c(O)c1 [EGCG, (2R,3R)-3′,4′,5,5′,7-Pentahydroxyflavan-3-yl 3,4,5-trihydroxybenzoate]
- survival in mouse FRDA models (FRDAkd mice): did not improve survival rates

Molecule: CC1(C)CC[C@]2(NC(=O)C(C)(F)F)CC[C@]3(C)[C@H](C(=O)C=C4[C@@]5(C)C=C(C#N)C(=O)C(C)(C)[C@@H]5CC[C@]43C)[C@@H]2C1 [omaveloxolone]
- neurological function (NRF2 [1]): improved

Molecule: O=c1c(O)c(-c2ccc(O)c(O)c2)oc2cc(O)cc(O)c12 [quercetin, 3,3′,4′,5,7-Pentahydroxyflavone]
- serum and tissue iron [2]: depletion
- survival in mouse FRDA models (FRDAkd mice): did not improve survival rates
- expression of NRF2 (Western blot) (NRF2 [3]; FRDAkd mice heart, eight weeks): Increased expression
- expression of NRF2 (Western blot) (NRF2 [3]; FRDAkd mice liver, three weeks): Increased expression
- NRF2 expression (NRF2 [3]; [9]): increase; also recorded: enhanced
- expression of FXN (Western blot) (FXN [4]; FRDAkd mice heart, eight weeks): Increased expression
- expression of FXN (Western blot) (FXN [4]; FRDAkd mice liver, three weeks): Increased expression
- FXN expression (FXN [4]; [9]): increase; also recorded: enhanced
- expression of NRF2 (Western blot) (NRF2 [5]; [10]): Increased expression
- NRF2 expression (NRF2 [5]; [11]): increase; also recorded: enhanced
- NRF2 marker gene expression (qPCR) (NRF2 [5]; [12]): dose-dependent effects
- expression of several genes involved in iron metabolism [6]: increase expression
- expression of FXN (Western blot, independent replication) (FXN [7]; FRDA fibroblast cell line, 24 hours quercetin, 7 μM dose): increased expression
- expression of FXN (Western blot) (FXN [7]; [10]): Increased expression
- FXN expression (FXN [7]; [11]): increase; also recorded: enhanced
- FXN marker gene expression (qPCR) (FXN [7]; [12]): dose-dependent effects

Molecule: NCCS(=O)(=O)O [taurine, 2-Aminoethane-1-sulfonic acid]
- survival in mouse FRDA models (FRDAkd mice): did not improve survival rates

B1: interferon γ-1b: treatment option for FRDA to increase FXN levels, dropped at phase 3 (protein, UniProt P01579 24-161, looked up)
Interferon gamma: QDPYVKEAENLKKYFNAGHSDVADNGTLFLGILKNWKEESDRKIMQSQIVSFYFKLFKNFKDDQSIQKSVETIKEDMNVKFFNSNKKKRDDFEKLTNYSVTDLNVQRKAIHELIQVMAELSPAAKTGKRKRSQMLFRG
- outcome measures (FXN [8]): failure to show any improvement
